This note sets out measurements from US9801903B2, “Targeting cancer with metabolic therapy and hyperbaric oxygen” (priority 2012, dated 2017).

The experiment deals with VM-M3/Fluc cells. Briefly: Whole animal tumor bioluminescence (tumor size and metastatic spread). Conditions: Example 2; day 21 post-inoculation; FIG. 8. The experiment is classed as in vivo, VM/Dk mice. From the text:
VM-M3/Fluc cells (T. Seyfried; Boston College) were obtained from a spontaneous tumor in a VM/Dk inbred mouse and adapted to cell culture (Huysentruyt et al., Metastatic cancer cells with macrophage properties: evidence from a new murine tumor model. Intl J Can. 2008, 123(1):73-84). […] VM-M3/Fluc cells are transfected with the firefly luciferase gene which produces a bioluminescent product in the presence of the enzymatic substrate luciferin (Shelton, et al. (2010) A novel pre-clinical in vivo mouse model for malignant brain tumor growth and invasion. Journal of neuro-oncology 99: 165-176). Bioluminescence can be detected and measured with the Xenogen IVIS Lumina System (Caliper LS). […] Bioluminescent signal was recorded using a 1 second exposure time on the IVIS Lumina cooled CCD camera. Progression of the metastatic cancer was measured by tracking the bioluminescent signal of the whole animal over time. Tumor bioluminescence will be measured once weekly for the duration of the study.
Tumor progression was measured using bioluminescence on the Xenogen IVIS Lumina cooled CCD camera (Caliper LS, Hopkinton, Mass.). […] Whole animal bioluminescent signal was measured in photons/sec once a week as an indicator of metastatic tumor size and spread. Tumor progression was measured 21 days after tumor cell inoculation.

Turning to `CC(=O)CC(=O)OCC[C@@H](C)OC(=O)CC(C)=O` [KE, R,S-1,3-butanediol-diacetoacetate ester], the “tumor bioluminescence / tumor growth and metastasis” value is “greatly reduced tumor growth and reduced metastasis of the tumor”.

Take `CC(O)CCO` (centres unmarked) [BD, 1,3-butanediol]: the “tumor bioluminescence / tumor growth and metastasis” value was “greatly reduced tumor growth and reduced metastasis of the tumor”.
